Source: US11154529B2, “Phosphaplatin liquid formulations” (Phosplatin Therapeutics Inc., priority 2016, dated 2021)

Assay: Ready-to-use formulation stability at 25° C./60% RH, 5 mg/mL (R,R)-pyrodach-2 in 10 mM Bicarbonate Buffer at pH 8.6, 10 mL vials
Format: physicochemical

## O=P1(O)OP(=O)(O)[O][Pt]2([NH][C@@H]3CCCC[C@H]3[NH]2)[O]1 (stereo partly drawn) [(R,R)-pyrodach-2, (R,R)-trans-1,2-cyclohexanediamine-(dihydrogenpyrophosphato)platinum(II)]
1 month
  Potency (Assay): 98.9%
  Purity (% Area): 97.44%
  Unknown Impurities RRT~0.29: 0.16%
  Unknown Impurities RRT~0.42: 0.21%
  Unknown Impurities RRT~0.49: 0.75%
  Unknown Impurities RRT~0.59: 0.15%
  Unknown Impurities RRT~0.73: 1.03%
  Unknown Impurities RRT~1.82: ND (ND = Not Detected, or <0.05%)
  Unknown Impurities RRT~2.85: ND (ND = Not Detected, or <0.05%)
  Unknown Impurities RRT~3.00: ND (ND = Not Detected, or <0.05%)
  Unknown Impurities RRT~3.15: ND (ND = Not Detected, or <0.05%)
  Unknown Impurities RRT~3.30: ND (ND = Not Detected, or <0.05%)
  Unknown Impurities RRT~3.45: ND (ND = Not Detected, or <0.05%)
  Unknown Impurities RRT~3.74: 0.08%
  Unknown Impurities RRT~4.27: ND (ND = Not Detected, or <0.05%)
  Unknown Impurities RRT~4.99: ND (ND = Not Detected, or <0.05%)
  pH: 8.68
1 week
  Potency (Assay): 101.7%
  Purity (% Area): 97.74%
  Unknown Impurities RRT~0.29: 0.11%
  Unknown Impurities RRT~0.42: 0.05%
  Unknown Impurities RRT~0.49: 0.78%
  Unknown Impurities RRT~0.59: 0.06%
  Unknown Impurities RRT~0.73: 1.12%
  Unknown Impurities RRT~1.82: ND (ND = Not Detected, or <0.05%)
  Unknown Impurities RRT~2.85: ND (ND = Not Detected, or <0.05%)
  Unknown Impurities RRT~3.00: ND (ND = Not Detected, or <0.05%)
  Unknown Impurities RRT~3.15: ND (ND = Not Detected, or <0.05%)
  Unknown Impurities RRT~3.30: ND (ND = Not Detected, or <0.05%)
  Unknown Impurities RRT~3.45: ND (ND = Not Detected, or <0.05%)
  Unknown Impurities RRT~3.74: ND (ND = Not Detected, or <0.05%)
  Unknown Impurities RRT~4.27: ND (ND = Not Detected, or <0.05%)
  Unknown Impurities RRT~4.99: ND (ND = Not Detected, or <0.05%)
  pH: 8.57
2 month
  Potency (Assay): 100.4%
  Purity (% Area): 96.45%
  Unknown Impurities RRT~0.29: 0.19%
  Unknown Impurities RRT~0.42: 0.56%
  Unknown Impurities RRT~0.49: 0.79%
  Unknown Impurities RRT~0.59: 0.26%
  Unknown Impurities RRT~0.73: 0.97%
  Unknown Impurities RRT~1.82: ND (ND = Not Detected, or <0.05%)
  Unknown Impurities RRT~2.85: 0.12%
  Unknown Impurities RRT~3.00: ND (ND = Not Detected, or <0.05%)
  Unknown Impurities RRT~3.15: ND (ND = Not Detected, or <0.05%)
  Unknown Impurities RRT~3.30: ND (ND = Not Detected, or <0.05%)
  Unknown Impurities RRT~3.45: 0.05%
  Unknown Impurities RRT~3.74: 0.31%
  Unknown Impurities RRT~4.27: ND (ND = Not Detected, or <0.05%)
  Unknown Impurities RRT~4.99: 0.07%
  pH: 8.73
2 week
  Potency (Assay): 99.9%
  Purity (% Area): 97.77%
  Unknown Impurities RRT~0.29: 0.12%
  Unknown Impurities RRT~0.42: 0.10%
  Unknown Impurities RRT~0.49: 0.77%
  Unknown Impurities RRT~0.59: ND (ND = Not Detected, or <0.05%)
  Unknown Impurities RRT~0.73: 1.17%
  Unknown Impurities RRT~1.82: ND (ND = Not Detected, or <0.05%)
  Unknown Impurities RRT~2.85: ND (ND = Not Detected, or <0.05%)
  Unknown Impurities RRT~3.00: ND (ND = Not Detected, or <0.05%)
  Unknown Impurities RRT~3.15: ND (ND = Not Detected, or <0.05%)
  Unknown Impurities RRT~3.30: ND (ND = Not Detected, or <0.05%)
  Unknown Impurities RRT~3.45: ND (ND = Not Detected, or <0.05%)
  Unknown Impurities RRT~3.74: ND (ND = Not Detected, or <0.05%)
  Unknown Impurities RRT~4.27: ND (ND = Not Detected, or <0.05%)
  Unknown Impurities RRT~4.99: ND (ND = Not Detected, or <0.05%)
  pH: 8.64
3 month
  Potency (Assay): 101.6%
  Purity (% Area): 96.08%
  Unknown Impurities RRT~0.29: 0.27%
  Unknown Impurities RRT~0.42: 0.76%
  Unknown Impurities RRT~0.49: 0.78%
  Unknown Impurities RRT~0.59: 0.25%
  Unknown Impurities RRT~0.73: 0.92%
  Unknown Impurities RRT~1.82: ND (ND = Not Detected, or <0.05%)
  Unknown Impurities RRT~2.85: 0.17%
  Unknown Impurities RRT~3.00: ND (ND = Not Detected, or <0.05%)
  Unknown Impurities RRT~3.15: ND (ND = Not Detected, or <0.05%)
  Unknown Impurities RRT~3.30: ND (ND = Not Detected, or <0.05%)
  Unknown Impurities RRT~3.45: ND (ND = Not Detected, or <0.05%)
  Unknown Impurities RRT~3.74: 0.40%
  Unknown Impurities RRT~4.27: 0.06%
  Unknown Impurities RRT~4.99: 0.14%
  pH: 9.01
3 week
  Potency (Assay): 100.3%
  Purity (% Area): 97.33%
  Unknown Impurities RRT~0.29: 0.16%
  Unknown Impurities RRT~0.42: 0.15%
  Unknown Impurities RRT~0.49: 0.76%
  Unknown Impurities RRT~0.59: 0.12%
  Unknown Impurities RRT~0.73: 1.26%
  Unknown Impurities RRT~1.82: ND (ND = Not Detected, or <0.05%)
  Unknown Impurities RRT~2.85: ND (ND = Not Detected, or <0.05%)
  Unknown Impurities RRT~3.00: ND (ND = Not Detected, or <0.05%)
  Unknown Impurities RRT~3.15: ND (ND = Not Detected, or <0.05%)
  Unknown Impurities RRT~3.30: ND (ND = Not Detected, or <0.05%)
  Unknown Impurities RRT~3.45: ND (ND = Not Detected, or <0.05%)
  Unknown Impurities RRT~3.74: 0.06%
  Unknown Impurities RRT~4.27: ND (ND = Not Detected, or <0.05%)
  Unknown Impurities RRT~4.99: ND (ND = Not Detected, or <0.05%)
  pH: 8.67
4 month
  Potency (Assay): 103.0%
  Purity (% Area): 95.98%
  Unknown Impurities RRT~0.29: 0.16%
  Unknown Impurities RRT~0.42: 0.96%
  Unknown Impurities RRT~0.49: 0.94%
  Unknown Impurities RRT~0.59: 0.17%
  Unknown Impurities RRT~0.73: 0.73%
  Unknown Impurities RRT~1.82: ND (ND = Not Detected, or <0.05%)
  Unknown Impurities RRT~2.85: 0.17%
  Unknown Impurities RRT~3.00: ND (ND = Not Detected, or <0.05%)
  Unknown Impurities RRT~3.15: ND (ND = Not Detected, or <0.05%)
  Unknown Impurities RRT~3.30: ND (ND = Not Detected, or <0.05%)
  Unknown Impurities RRT~3.45: ND (ND = Not Detected, or <0.05%)
  Unknown Impurities RRT~3.74: 0.58%
  Unknown Impurities RRT~4.27: 0.06%
  Unknown Impurities RRT~4.99: 0.20%
  pH: 8.90
6 month
  Potency (Assay): 99.2%
  Purity (% Area): 95.03%
  Unknown Impurities RRT~0.29: 0.22%
  Unknown Impurities RRT~0.42: 1.29%
  Unknown Impurities RRT~0.49: 0.80%
  Unknown Impurities RRT~0.59: 0.32%
  Unknown Impurities RRT~0.73: 0.82%
  Unknown Impurities RRT~1.82: ND (ND = Not Detected, or <0.05%)
  Unknown Impurities RRT~2.85: 0.15%
  Unknown Impurities RRT~3.00: 0.07%
  Unknown Impurities RRT~3.15: ND (ND = Not Detected, or <0.05%)
  Unknown Impurities RRT~3.30: 0.05%
  Unknown Impurities RRT~3.45: ND (ND = Not Detected, or <0.05%)
  Unknown Impurities RRT~3.74: 0.69%
  Unknown Impurities RRT~4.27: 0.08%
  Unknown Impurities RRT~4.99: 0.36%
  pH: 8.93
9 month
  Potency (Assay): 100.3%
  Purity (% Area): 93.82%
  Unknown Impurities RRT~0.29: 0.15%
  Unknown Impurities RRT~0.42: 1.88%
  Unknown Impurities RRT~0.49: 0.84%
  Unknown Impurities RRT~0.59: 0.32%
  Unknown Impurities RRT~0.73: 0.43%
  Unknown Impurities RRT~1.82: 0.05%
  Unknown Impurities RRT~2.85: 0.32%
  Unknown Impurities RRT~3.00: ND (ND = Not Detected, or <0.05%)
  Unknown Impurities RRT~3.15: 0.07%
  Unknown Impurities RRT~3.30: 0.10%
  Unknown Impurities RRT~3.45: 0.06%
  Unknown Impurities RRT~3.74: 0.88%
  Unknown Impurities RRT~4.27: 0.13%
  Unknown Impurities RRT~4.99: 0.66%
  pH: 9.08
12 month
  Potency (Assay): 98.4%
  Purity (% Area): 92.23%
  Unknown Impurities RRT~0.29: 0.14%
  Unknown Impurities RRT~0.42: 2.20%
  Unknown Impurities RRT~0.49: 0.86%
  Unknown Impurities RRT~0.59: 0.32%
  Unknown Impurities RRT~0.73: 0.97%
  Unknown Impurities RRT~1.82: 0.06%
  Unknown Impurities RRT~2.85: 0.37%
  Unknown Impurities RRT~3.00: 0.06%
  Unknown Impurities RRT~3.15: 0.06%
  Unknown Impurities RRT~3.30: 0.12%
  Unknown Impurities RRT~3.45: 0.05%
  Unknown Impurities RRT~3.74: 1.07%
  Unknown Impurities RRT~4.27: 0.15%
  Unknown Impurities RRT~4.99: 1.02%
  pH: 9.07
Initial
  Potency (Assay): 100.3%
  Purity (% Area): 98.04%
  Unknown Impurities RRT~0.29: 0.11%
  Unknown Impurities RRT~0.42: ND (ND = Not Detected, or <0.05%)
  Unknown Impurities RRT~0.49: 0.62%
  Unknown Impurities RRT~0.59: ND (ND = Not Detected, or <0.05%)
  Unknown Impurities RRT~0.73: 1.05%
  Unknown Impurities RRT~1.82: ND (ND = Not Detected, or <0.05%)
  Unknown Impurities RRT~2.85: ND (ND = Not Detected, or <0.05%)
  Unknown Impurities RRT~3.00: ND (ND = Not Detected, or <0.05%)
  Unknown Impurities RRT~3.15: ND (ND = Not Detected, or <0.05%)
  Unknown Impurities RRT~3.30: ND (ND = Not Detected, or <0.05%)
  Unknown Impurities RRT~3.45: ND (ND = Not Detected, or <0.05%)
  Unknown Impurities RRT~3.74: ND (ND = Not Detected, or <0.05%)
  Unknown Impurities RRT~4.27: ND (ND = Not Detected, or <0.05%)
  Unknown Impurities RRT~4.99: ND (ND = Not Detected, or <0.05%)
  pH: 8.60
